Test results reported in the kinase profiling compilation of Christmann-Franck et al. (2016).
Where “and” joins values, the source holds several entries; their conditions need not be identical. Equal values may be shown once.

Legend:
Assay in all cases: Caliper, Mobility shift assay off-chip
ZAP70 (human) = ZAP70 (human) (UniProt P43403)
IGF1R (human) = IGF1R (human) (UniProt P08069)
ROCK1 (human) = ROCK1 (human) (UniProt Q13464)
PRKCI (human) = PRKCI (human) (UniProt P41743)
RIPK2 (human) = RIPK2 (human) (UniProt O43353)
MAPK8 (human) = MAPK8 (human) (UniProt P45983)
MAPK13 (human) = MAPK13 (human) (UniProt O15264)
PIM2 (human) = PIM2 (human) (UniProt Q9P1W9)
CHEK1 (human) = CHEK1 (human) (UniProt O14757)
PIM1 (human) = PIM1 (human) (UniProt P11309)
BRSK2 (human) = BRSK2 (human) (UniProt Q8IWQ3)
PRKCG (human) = PRKCG (human) (UniProt P05129)
CDK2 CCNA2 (human) = CDK2 CCNA2 (human) (UniProt P24941+P20248)
EPHA2 (human) = EPHA2 (human) (UniProt P29317)
EGFR (human) = EGFR (human) (UniProt P00533)
KDR (human) = KDR (human) (UniProt P35968)
MAPK12 (human) = MAPK12 (human) (UniProt P53778)
RPS6KA1 KD1 KD2 (human) = RPS6KA1 KD1 KD2 (human) (UniProt Q15418)
RPS6KA5 KD1 KD2 (human) = RPS6KA5 KD1 KD2 (human) (UniProt O75582)
FLT3 (human) = FLT3 (human) (UniProt P36888)
AKT1 (human) = AKT1 (human) (UniProt P31749)
NEK6 (human) = NEK6 (human) (UniProt Q9HC98)
MAP3K7 (human) = MAP3K7 (human) (UniProt O43318)
PLK3 (human) = PLK3 (human) (UniProt Q9H4B4)
FGFR1 (human) = FGFR1 (human) (UniProt P11362)
PRKCA (human) = PRKCA (human) (UniProt P17252)
FGFR3 (human) = FGFR3 (human) (UniProt P22607)
MAPK14 (human) = MAPK14 (human) (UniProt Q16539)
RAF1 (human) = RAF1 (human) (UniProt P04049)
MAPKAPK5 (human) = MAPKAPK5 (human) (UniProt Q8IW41)
SRC (human) = SRC (human) (UniProt P12931)
KIT (human) = KIT (human) (UniProt P10721)
ALK (human) = ALK (human) (UniProt Q9UM73)
MAPK11 (human) = MAPK11 (human) (UniProt Q15759)
BTK (human) = BTK (human) (UniProt Q06187)
NEK2 (human) = NEK2 (human) (UniProt P51955)
PAK4 (human) = PAK4 (human) (UniProt O96013)
RPS6KB1 (human) = RPS6KB1 (human) (UniProt P23443)
MAPKAPK2 (human) = MAPKAPK2 (human) (UniProt P49137)
TEK (human) = TEK (human) (UniProt Q02763)
EPHA4 (human) = EPHA4 (human) (UniProt P54764)

Sequence of SRC (human) (P12931 whole entry, looked up): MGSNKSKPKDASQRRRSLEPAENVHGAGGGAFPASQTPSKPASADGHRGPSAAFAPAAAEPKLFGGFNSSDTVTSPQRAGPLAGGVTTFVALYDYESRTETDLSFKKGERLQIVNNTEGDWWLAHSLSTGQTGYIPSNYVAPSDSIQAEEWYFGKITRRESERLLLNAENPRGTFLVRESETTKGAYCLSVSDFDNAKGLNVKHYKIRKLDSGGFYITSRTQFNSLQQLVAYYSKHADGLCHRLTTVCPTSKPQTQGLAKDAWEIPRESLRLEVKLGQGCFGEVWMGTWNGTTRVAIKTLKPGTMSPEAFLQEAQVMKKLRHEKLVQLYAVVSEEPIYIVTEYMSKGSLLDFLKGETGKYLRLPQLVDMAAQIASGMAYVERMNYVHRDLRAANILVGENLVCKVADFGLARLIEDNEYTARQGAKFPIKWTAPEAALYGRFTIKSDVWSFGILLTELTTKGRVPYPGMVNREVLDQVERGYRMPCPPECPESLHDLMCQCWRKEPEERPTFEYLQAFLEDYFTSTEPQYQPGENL
Sequence of ZAP70 (human) (P43403 whole entry, looked up): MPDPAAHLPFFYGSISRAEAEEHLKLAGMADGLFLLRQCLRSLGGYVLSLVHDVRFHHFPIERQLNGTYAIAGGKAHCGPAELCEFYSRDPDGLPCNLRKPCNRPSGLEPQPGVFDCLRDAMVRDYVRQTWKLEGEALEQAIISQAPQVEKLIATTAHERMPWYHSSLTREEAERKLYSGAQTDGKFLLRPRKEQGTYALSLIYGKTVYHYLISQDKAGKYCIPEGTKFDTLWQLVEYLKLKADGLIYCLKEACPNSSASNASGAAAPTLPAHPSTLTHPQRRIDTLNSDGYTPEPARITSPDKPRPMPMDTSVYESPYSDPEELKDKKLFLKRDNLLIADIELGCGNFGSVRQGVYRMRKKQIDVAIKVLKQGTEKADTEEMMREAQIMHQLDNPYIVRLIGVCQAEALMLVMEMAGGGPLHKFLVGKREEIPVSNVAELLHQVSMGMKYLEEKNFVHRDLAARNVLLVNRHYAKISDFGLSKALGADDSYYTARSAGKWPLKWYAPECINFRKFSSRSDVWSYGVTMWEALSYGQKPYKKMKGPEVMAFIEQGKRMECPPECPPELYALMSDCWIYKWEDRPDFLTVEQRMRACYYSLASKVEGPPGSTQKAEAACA
Sequence of MAPKAPK5 (human) (Q8IW41 whole entry, looked up): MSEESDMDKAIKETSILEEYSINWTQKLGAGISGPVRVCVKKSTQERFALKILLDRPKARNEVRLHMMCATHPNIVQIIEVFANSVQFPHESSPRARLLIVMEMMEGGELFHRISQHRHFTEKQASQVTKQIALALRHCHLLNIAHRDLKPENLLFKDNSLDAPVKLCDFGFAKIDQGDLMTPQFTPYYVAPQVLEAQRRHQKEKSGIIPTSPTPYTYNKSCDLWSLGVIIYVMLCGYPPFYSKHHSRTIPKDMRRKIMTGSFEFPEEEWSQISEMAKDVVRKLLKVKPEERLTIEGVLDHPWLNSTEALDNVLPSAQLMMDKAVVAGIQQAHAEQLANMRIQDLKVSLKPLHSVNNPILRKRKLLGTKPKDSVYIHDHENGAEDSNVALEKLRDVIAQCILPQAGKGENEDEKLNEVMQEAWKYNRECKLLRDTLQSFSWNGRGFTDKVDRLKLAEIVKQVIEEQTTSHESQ
Sequence of FGFR3 (human) (P22607 whole entry, looked up): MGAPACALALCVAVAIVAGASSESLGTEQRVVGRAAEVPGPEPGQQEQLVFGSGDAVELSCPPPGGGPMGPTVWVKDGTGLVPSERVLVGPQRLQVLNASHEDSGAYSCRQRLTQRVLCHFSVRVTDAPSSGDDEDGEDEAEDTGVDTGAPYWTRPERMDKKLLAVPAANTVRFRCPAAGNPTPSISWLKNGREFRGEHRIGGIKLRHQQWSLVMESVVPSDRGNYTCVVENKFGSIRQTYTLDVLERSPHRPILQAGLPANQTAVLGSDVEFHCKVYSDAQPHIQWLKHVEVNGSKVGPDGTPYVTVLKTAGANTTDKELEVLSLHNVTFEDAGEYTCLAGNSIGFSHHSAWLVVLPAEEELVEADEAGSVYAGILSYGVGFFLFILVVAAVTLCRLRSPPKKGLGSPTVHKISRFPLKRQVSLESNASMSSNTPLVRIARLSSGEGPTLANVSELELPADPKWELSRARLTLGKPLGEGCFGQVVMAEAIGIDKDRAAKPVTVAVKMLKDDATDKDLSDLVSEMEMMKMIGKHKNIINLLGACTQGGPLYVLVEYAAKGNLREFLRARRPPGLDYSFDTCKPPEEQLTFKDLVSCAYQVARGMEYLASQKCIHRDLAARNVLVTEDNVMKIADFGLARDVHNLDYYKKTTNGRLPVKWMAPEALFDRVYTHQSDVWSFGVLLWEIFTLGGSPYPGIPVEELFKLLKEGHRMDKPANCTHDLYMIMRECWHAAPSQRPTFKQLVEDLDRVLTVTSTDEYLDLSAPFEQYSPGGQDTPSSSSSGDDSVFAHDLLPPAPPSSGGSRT
Sequence of IGF1R (human) (P08069 whole entry, looked up): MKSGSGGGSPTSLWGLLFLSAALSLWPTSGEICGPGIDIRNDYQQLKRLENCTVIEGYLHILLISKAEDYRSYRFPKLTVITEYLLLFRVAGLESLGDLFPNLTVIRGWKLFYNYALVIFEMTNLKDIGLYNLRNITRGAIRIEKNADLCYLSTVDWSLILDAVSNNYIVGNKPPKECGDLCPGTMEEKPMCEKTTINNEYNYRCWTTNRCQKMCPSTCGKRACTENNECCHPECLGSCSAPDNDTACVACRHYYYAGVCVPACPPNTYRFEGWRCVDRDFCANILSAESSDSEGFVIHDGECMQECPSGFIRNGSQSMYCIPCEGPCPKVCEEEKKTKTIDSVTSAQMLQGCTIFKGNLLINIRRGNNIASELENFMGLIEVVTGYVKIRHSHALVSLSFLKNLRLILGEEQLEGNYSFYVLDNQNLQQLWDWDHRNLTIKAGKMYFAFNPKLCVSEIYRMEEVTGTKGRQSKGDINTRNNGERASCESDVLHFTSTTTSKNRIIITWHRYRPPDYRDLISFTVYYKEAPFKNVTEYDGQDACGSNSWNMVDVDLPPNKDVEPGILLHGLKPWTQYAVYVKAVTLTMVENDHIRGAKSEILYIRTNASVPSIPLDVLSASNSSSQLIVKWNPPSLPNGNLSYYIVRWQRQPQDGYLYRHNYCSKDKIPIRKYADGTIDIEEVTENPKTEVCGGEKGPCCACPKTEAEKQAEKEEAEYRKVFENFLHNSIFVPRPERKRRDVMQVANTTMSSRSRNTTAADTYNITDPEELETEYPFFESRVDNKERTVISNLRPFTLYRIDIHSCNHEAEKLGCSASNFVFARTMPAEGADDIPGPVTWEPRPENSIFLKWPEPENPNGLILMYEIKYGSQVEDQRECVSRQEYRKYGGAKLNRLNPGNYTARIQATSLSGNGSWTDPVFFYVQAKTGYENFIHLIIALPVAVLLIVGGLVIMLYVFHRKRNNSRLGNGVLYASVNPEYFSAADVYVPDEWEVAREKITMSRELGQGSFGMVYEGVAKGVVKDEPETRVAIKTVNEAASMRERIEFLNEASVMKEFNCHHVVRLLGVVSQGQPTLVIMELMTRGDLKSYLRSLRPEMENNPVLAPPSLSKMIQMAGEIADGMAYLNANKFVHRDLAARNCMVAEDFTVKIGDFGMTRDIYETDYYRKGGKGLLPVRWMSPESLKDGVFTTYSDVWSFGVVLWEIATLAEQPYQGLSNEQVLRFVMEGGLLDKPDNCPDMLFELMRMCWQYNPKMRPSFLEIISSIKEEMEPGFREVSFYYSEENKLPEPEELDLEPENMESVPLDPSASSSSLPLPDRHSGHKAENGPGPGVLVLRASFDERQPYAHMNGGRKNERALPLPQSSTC
Sequence of NEK6 (human) (Q9HC98 whole entry, looked up): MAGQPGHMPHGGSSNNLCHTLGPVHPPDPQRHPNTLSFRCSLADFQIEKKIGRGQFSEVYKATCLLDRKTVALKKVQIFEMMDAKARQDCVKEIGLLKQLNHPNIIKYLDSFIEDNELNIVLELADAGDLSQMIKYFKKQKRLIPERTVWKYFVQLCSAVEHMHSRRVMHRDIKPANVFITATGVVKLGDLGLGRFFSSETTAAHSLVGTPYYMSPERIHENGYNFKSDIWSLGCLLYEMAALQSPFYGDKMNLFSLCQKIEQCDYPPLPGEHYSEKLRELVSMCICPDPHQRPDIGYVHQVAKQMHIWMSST

C[C@@H](Nc1nc2c(C#CC3CC3)c[nH]c(=O)c2c2cc(-c3cn[nH]c3)ccc12)C(C)(C)C
residual activity (ZAP70 (human); compound 1.0 µM): 104% | residual activity (IGF1R (human); compound 1.0 µM): 85% | residual activity (ROCK1 (human); compound 1.0 µM): 102% | residual activity (PRKCI (human); compound 1.0 µM): 98% | residual activity (RIPK2 (human); compound 1.0 µM): 51% | residual activity (MAPK8 (human); compound 1.0 µM): 87% | residual activity (MAPK13 (human); compound 1.0 µM): 108% | residual activity (PIM2 (human); compound 1.0 µM): 99% | residual activity (CHEK1 (human); compound 1.0 µM): 46% | residual activity (PIM1 (human); compound 1.0 µM): 107% | residual activity (BRSK2 (human); compound 1.0 µM): 15% | residual activity (PRKCG (human); compound 1.0 µM): 95% | residual activity (CDK2 CCNA2 (human); compound 1.0 µM): 104% | residual activity (EPHA2 (human); compound 1.0 µM): 131% | residual activity (EGFR (human); compound 1.0 µM): 116% | residual activity (KDR (human); compound 1.0 µM): 42% | residual activity (MAPK12 (human); compound 1.0 µM): 106% | residual activity (RPS6KA1 KD1 KD2 (human); compound 1.0 µM): 20% | residual activity (RPS6KA5 KD1 KD2 (human); compound 1.0 µM): 83% | residual activity (FLT3 (human); compound 1.0 µM): 43% | residual activity (AKT1 (human); compound 1.0 µM): 98% | residual activity (NEK6 (human); compound 1.0 µM): 110% | residual activity (MAP3K7 (human); compound 1.0 µM): 90% | residual activity (PLK3 (human); compound 1.0 µM): 85% | residual activity (FGFR1 (human); compound 1.0 µM): 29% | residual activity (PRKCA (human); compound 1.0 µM): 108% | residual activity (FGFR3 (human); compound 1.0 µM): 60% | residual activity (MAPK14 (human); compound 1.0 µM): 107% | residual activity (RAF1 (human); compound 1.0 µM): 107% | residual activity (MAPKAPK5 (human); compound 1.0 µM): 75% | residual activity (SRC (human); compound 1.0 µM): 83% and 87% | residual activity (KIT (human); compound 1.0 µM): 109% | residual activity (ALK (human); compound 1.0 µM): 77% | residual activity (MAPK11 (human); compound 1.0 µM): 110% | residual activity (BTK (human); compound 1.0 µM): 79% | residual activity (NEK2 (human); compound 1.0 µM): 116% | residual activity (PAK4 (human); compound 1.0 µM): 95% | residual activity (RPS6KB1 (human); compound 1.0 µM): 45% | residual activity (MAPKAPK2 (human); compound 1.0 µM): 115% | residual activity (TEK (human); compound 1.0 µM): 109% | residual activity (EPHA4 (human); compound 1.0 µM): 103%

O=C(N[C@@H](COc1ccc2[nH]c(=O)[nH]c2c1)c1ccccc1)c1cccn(Cc2ccc(F)c(F)c2)c1=O
residual activity (ZAP70 (human); compound 10.0 µM): 100% | residual activity (IGF1R (human); compound 10.0 µM): 116% | residual activity (ROCK1 (human); compound 10.0 µM): 97% | residual activity (PRKCI (human); compound 10.0 µM): 97% | residual activity (RIPK2 (human); compound 10.0 µM): 101% | residual activity (MAPK8 (human); compound 10.0 µM): 125% | residual activity (MAPK13 (human); compound 10.0 µM): 114% | residual activity (PIM2 (human); compound 10.0 µM): 100% | residual activity (CHEK1 (human); compound 10.0 µM): 105% | residual activity (PIM1 (human); compound 10.0 µM): 104% | residual activity (BRSK2 (human); compound 10.0 µM): 111% | residual activity (PRKCG (human); compound 10.0 µM): 104% | residual activity (CDK2 CCNA2 (human); compound 10.0 µM): 99% | residual activity (EPHA2 (human); compound 10.0 µM): 127% | residual activity (EGFR (human); compound 10.0 µM): 89% | residual activity (KDR (human); compound 10.0 µM): 101% | residual activity (MAPK12 (human); compound 10.0 µM): 115% | residual activity (RPS6KA1 KD1 KD2 (human); compound 10.0 µM): 107% | residual activity (RPS6KA5 KD1 KD2 (human); compound 10.0 µM): 109% | residual activity (FLT3 (human); compound 10.0 µM): 103% | residual activity (AKT1 (human); compound 10.0 µM): 107% | residual activity (NEK6 (human); compound 10.0 µM): 99% | residual activity (MAP3K7 (human); compound 10.0 µM): 101% | residual activity (PLK3 (human); compound 10.0 µM): 96% | residual activity (FGFR1 (human); compound 10.0 µM): 86% | residual activity (PRKCA (human); compound 10.0 µM): 98% | residual activity (FGFR3 (human); compound 10.0 µM): 122% | residual activity (MAPK14 (human); compound 10.0 µM): 107% | residual activity (RAF1 (human); compound 10.0 µM): 109% | residual activity (MAPKAPK5 (human); compound 10.0 µM): 98% | residual activity (SRC (human); compound 10.0 µM): 94% and 101% | residual activity (KIT (human); compound 10.0 µM): 107% | residual activity (ALK (human); compound 10.0 µM): 116% | residual activity (MAPK11 (human); compound 10.0 µM): 100% | residual activity (BTK (human); compound 10.0 µM): 107% | residual activity (NEK2 (human); compound 10.0 µM): 94% | residual activity (PAK4 (human); compound 10.0 µM): 105% | residual activity (RPS6KB1 (human); compound 10.0 µM): 104% | residual activity (MAPKAPK2 (human); compound 10.0 µM): 98% | residual activity (TEK (human); compound 10.0 µM): 105% | residual activity (EPHA4 (human); compound 10.0 µM): 101%
